Data taken from patent publication US20210267996A1, “Compounds for inhibition of inflammation” (Children`s Medical Center Corporation, priority 2018, published 2021).
Entries after “also recorded” stand apart in the source; their conditions may differ. Structures can show the parent of a compound that is named as a salt. Where two headings read alike, the source gives them in different places.

Tests used:
Human GSDMD = target: T1, Human GSDMD (Homo sapiens, UniProt P57764); test: Liposome leakage assay (Tb3+/DPA), GSDMD plus caspase-11; assay type: biochemical
T1 construct: His6-MBP (N, cleaved yes); made in house; host or cells: E. coli BL21 (DE3) for GSDMD; Sf9 for caspase-11
T1 sequence (P57764 1-484): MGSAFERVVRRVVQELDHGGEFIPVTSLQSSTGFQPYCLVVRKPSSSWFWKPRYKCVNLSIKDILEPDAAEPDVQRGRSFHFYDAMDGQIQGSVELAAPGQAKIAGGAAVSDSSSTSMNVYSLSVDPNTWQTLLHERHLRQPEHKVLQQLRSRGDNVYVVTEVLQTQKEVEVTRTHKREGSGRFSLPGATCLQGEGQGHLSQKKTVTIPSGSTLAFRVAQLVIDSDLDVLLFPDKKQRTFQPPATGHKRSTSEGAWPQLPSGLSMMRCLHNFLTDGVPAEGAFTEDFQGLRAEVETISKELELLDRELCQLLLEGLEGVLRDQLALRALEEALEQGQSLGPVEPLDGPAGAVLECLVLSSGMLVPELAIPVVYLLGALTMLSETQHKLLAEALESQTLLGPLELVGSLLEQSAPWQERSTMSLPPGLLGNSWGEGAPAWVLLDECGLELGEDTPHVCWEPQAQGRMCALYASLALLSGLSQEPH
Procedure: The lipid mixture was suspended in 1 mL Buffer A (20 mM HEPES, 150 mM NaCl, 50 mM sodium citrate, and 15 mM TbCl3) for 3 min. The suspension was pushed through 100 nm Whatman® Nuclepore™ Track-Etched Membrane 30 times to obtain homogeneous liposomes. The filtered suspension was purified by size exclusion column (Superose 6, 10/300 GL) in Buffer B (20 mM HEPES, 150 mM NaCl) to remove TbCl3 outside liposomes. […] The liposomes are diluted to 50 μM with Buffer C (20 mM HEPES, 150 mM NaCl and 50 μM DPA) for use in high-throughput screening.

THP-1 cells = test: Canonical inflammasome pyroptosis, LPS-primed THP-1 cells plus nigericin; assay type: cell-based, human; conditions: for inhibition of canonical inflammasome pyroptosis: THP-1, nigericin
Procedure: Cell viability assay. […] Primed THP-1 cells were pretreated with each test compound for 1 hr before addition of 20 μM nigericin or medium as control. The number of surviving cells was determined by CellTiter-Glo assay 1.5 hrs later. The final percent cell viability was calculated using the formula [(luminescencetest compound−luminescencencenegative control)/(luminescencencepositive control−luminescencenegative control)]×100, where wells with only LPS were used as positive controls and wells treated with LPS and nigericin were used as negative controls.
In FIGS. 4, 6, and 8, PMA-differentiated LPS-primed human THP-1 were pre-treated with indicated concentrations of each compound for 1 h before adding nigericin or medium. The number of surviving cells was determined by CellTiter-Glo assay (FIGS. 4 and 6) and IL-1β in culture supernatants was assessed by ELISA (FIG. 8) 2 hrs later. […] In FIGS. 8 and 9, 40 μM concentration of test compounds were added. […] Graphs show the mean±s.d. and data shown are representative of three independent experiments. **P<0.01.

mouse iBMDMs [1] = test: Non-canonical inflammasome pyroptosis, iBMDMs with LPS electroporation; assay type: cell-based
Procedure: Cell lines and treatments: THP-1 cells and HEK293T cells (obtained from ATCC) were grown in RPMI with 10% heat-inactivated fetal bovine serum, supplemented with 100 U/ml penicillin G, 100 μg/ml streptomycin sulfate, 6 mM HEPES, 1.6 mM L-glutamine, and 50 μM 2ME. C57BL/6 mouse iBMDM cells were kindly provided by J. Kagan (Boston Children's Hospital) and cultured in DMEM with the same supplements. Cells were verified to be free of mycoplasma contamination. Transient transfection of HEK293T cells was performed using Lipofectamine 2000 (Invitrogen) according to the manufacturer's instructions. iBMDM cells were transfected by nucleofection using the Amaxa Nucleofector kit (VPA-1009). […] To examine IκBα. phosphorylation and degradation as well as IL-1β induction, PMA-differentiated THP-1 cells were stimulated with LPS (1 μg/ml) for 0.5, 1 and 4 hrs, respectively. For noncanoical inflammasome activation, 1 million iBMDM cells were electroporated with 1 μg ultra LPS.
Cytotoxicity and cell viability assays: cell death and cell viability were determined by the lactate dehydrogenase release assay using the CytoTox 96 Non-Radioactive Cytotoxicity Assay kit (Promega) and by measuring ATP levels using the CellTiter-Glo Luminescent Cell Viability Assay (Promega), respectively, according to the manufacturer's instructions. Luminescence and absorbance were measured on a BioTek Synergy 2 plate reader.
In FIGS. 4, 6, and 8, PMA-differentiated LPS-primed human THP-1 were pre-treated with indicated concentrations of each compound for 1 h before adding nigericin or medium. The number of surviving cells was determined by CellTiter-Glo assay (FIGS. 4 and 6) and IL-1β in culture supernatants was assessed by ELISA (FIG. 8) 2 hrs later. In FIGS. 5, 7, and 9, mouse iBMDMs were pre-treated with each test compound for 1 hr before electroporation with PBS or LPS. The number of surviving cells was determined by CellTiter-Glo assay (FIGS. 5 and 7) and IL-1β in culture supernatants was assessed by ELISA (FIG. 9) 2.5 hrs later. In FIGS. 8 and 9, 40 μM concentration of test compounds were added.

HT-29 cells = test: Necroptosis induced by TNFα, SMAC mimetic and z-VAD-fmk; assay type: cell-based; conditions: SMAC mimetic
Text: Inhibition was shown by cell survival, assessed by CellTiter-Glo ATP luminescence, and membrane permeabilization, assessed by uptake of the membrane-impermeable dye SYTOX Green.

mouse iBMDMs [2] = test: Processing of caspase-1, GSDMD and IL-1β in iBMDMs (immunoblot); assay type: cell-based; conditions: 1 hr time point
Procedure: (§1) FIG. 97 contains a bar graph showing results of an experiment where LPS-primed THP-1 cells, after medium removal, were incubated with probe FAM-YVAD-FMK in FLICA assay buffer for another 0.5 hr before fluorescence reading. iBMDMs were pretreated with disulfiram, Bay 11-7082, necrosulfonamide (NSA) or z-VAD-fmk for 1 hr before treated or not with Nigericin for 0.5 hr. Whole cell lysates and culture supernatants were immunoblotted with the indicated antibodies.
as §1, with “FIG. 98” for “FIG. 97”, “for 1” for “for 0.5”
Canonical inflammasome assembly activates caspase-1, which cleaves pro-IL-1β and GSDMD, and the latter is needed to release processed IL-1β and to induce pyroptosis. To assess which steps in NLRP3-mediated inflammation were inhibited post ASC speck formation, LPS-primed THP-1 cells were treated with vehicle, 30 μM z-VAD-fmk or disulfiram 1 hour before adding nigericin, and cleavage and activation of caspase-1, GSDMD, and pro-IL-1β were analysed by immunoblot of whole cell lysates 30 min later and 1 hr later. Secretion of processed IL-1β was also assessed by immunoblot of culture supernatants. […] The 1 hr time point is relevant as the cell death and IL-1β release measurements used cells stimulated with nigericin for 1 and 2 hrs, respectively.

[3] = Table 2, leakage assay, read-out: IC50

In the case of S=C(SSC(=S)N1CCOCC1)N1CCOCC1 [C-23A7, di(4-morpholinyl)dithioperoxyanhydride], the IC50 (Human GSDMD; [3]) is reported as 250 ± 10 nM.

For CC(C)N(C(=S)SSC(=S)N(C(C)C)C(C)C)C(C)C [C-23A2, Tetraisopropylthiuram disulfide], the IC50 (Human GSDMD; [3]) was 370 ± 10 nM.

CN1CCN(C(=S)SSC(=S)N2CCN(C)CC2)CC1 [C-23A4, 4-Methylpiperazine-1-carbothioic dithioperoxyanhydride] showed an IC50 (Human GSDMD; [3]) of 260 ± 10 nM.

S=C(SSC(=S)N1CCCC1)N1CCCC1 [C-23A10, pyrrolidine-1-carbothioic dithioperoxyanhydride] was tested, and the IC50 (Human GSDMD; [3]) was 260 ± 20 nM.

CN(C)C(=S)SSC(=S)N(C)C [C-23A1, tetramethylthiuram disulfide] showed an IC50 (Human GSDMD; [3]) of 220 ± 10 nM.

CCN(CC)C(=S)S [DTC, diethyldithiocarbamate] was tested, and the “effect of copper gluconate (Cu2+) on inhibition of liposome leakage” value (Human GSDMD; with Cu2+) was “only weakly increased”, the “activity in cells in the presence of Cu2+” value (THP-1 cells; with Cu2+) was “almost as active as C-23; also recorded: almost as active as disulfiram” and the “effect of Cu2+ on protection of LPS-primed THP-1 cells from pyroptosis” value (THP-1 cells; with Cu2+) was “strongly promoted”.

Compound CN(C(=S)SSC(=S)N(C)c1ccncc1)c1ccncc1 [C-23A8, N,N′-Dimethyl-N,N′-di(4-pyridinyl)thiuram disulfide] has an IC50 (Human GSDMD; [3]) of 1250 ± 10 nM.

For S=C(SSC(=S)N(Cc1ccccc1)Cc1ccccc1)N(Cc1ccccc1)Cc1ccccc1 [C-23A12, Tetrabenzylthiuram disulfide], the IC50 (Human GSDMD; [3]) was 2930 ± 1070 nM.

Work on CN(C(=S)SSC(=S)N(C)c1ccccc1)c1ccccc1 [C-23A11, dimethyldiphenylthiuram disulfide] yielded an IC50 (Human GSDMD; [3]) of 370 ± 10 nM.

COc1ccc(-c2cc(=S)ss2)cc1 [C-22] was tested, and the “inhibition of canonical inflammasome pyroptosis” value (THP-1 cells) was “Only C-23 blocked pyroptosis” and the “inhibition of non-canonical inflammasome pyroptosis” value (mouse iBMDMs [1]) was “Only C-23 blocked pyroptosis”.

Cc1c(-c2cnccn2)ssc1=S [C-24] was tested, and the “inhibition of canonical inflammasome pyroptosis” value (THP-1 cells) was “Only C-23 blocked pyroptosis” and the “inhibition of non-canonical inflammasome pyroptosis” value (mouse iBMDMs [1]) was “Only C-23 blocked pyroptosis”.

COC(=O)/C=C/C(=O)OC [DMF, dimethyl fumarate] was tested, and the “activity against GSDMD” value (Human GSDMD; Cys-reactive comparison compounds) was “lack of activity”.

Work on S=C(SSC(=S)N1CCCCC1)N1CCCCC1 [C-23A9, dicyclopentamethylenethiuram disulfide] yielded an IC50 (Human GSDMD; [3]) of 260 ± 3 nM.

For S=C(SSC(=S)N(c1ccccc1)c1ccccc1)N(c1ccccc1)c1ccccc1 [C-23A5, Tetraphenylthiuram disulfide], the IC50 (Human GSDMD; [3]) was 3740 ± 1060 nM.

For COc1nccnc1NS(=O)(=O)c1ccc(NC(=O)/C=C/c2ccc([N+](=O)[O-])s2)cc1 [necrosulfonamide], the “times less active than disulfiram at inhibiting liposome leakage” value (Human GSDMD; GSDMD plus caspase-11) was “about 30 fold”, the IC50 (Human GSDMD; WT GSDMD, caspase-11-triggered, read-out: IC50 of liposome leakage) was 9500 ± 430 nM and the necroptosis (HT-29 cells) was “blocked”. The “processing of caspase-1, GSDMD and IL-1β” value (mouse iBMDMs [2]) was “still inhibited processing”.

Cc1ccc(N(C)C(=S)SSC(=S)N(C)c2ccc(C)cc2)cc1 [C-23A6, N,N′-Dimethyl-N,N′-(4,4′-dimethyldiphenyl)thiuram disulfide] showed an IC50 (Human GSDMD; [3]) of 350 ± 30 nM.

With CN1C(=O)C(Cc2c[nH]c3ccccc23)NC1=S (stereo not shown) [necrostatin-1] the necroptosis (HT-29 cells) was “blocked”.

With CCCCN(CCCC)C(=S)SSC(=S)N(CCCC)CCCC [C-23A3, tetrabutylthiuram disulfide] the IC50 (Human GSDMD; [3]) was 460 ± 80 nM.
